Data on 1 molecule can be found in US6613762B2, “Gambogic acid, analogs and derivatives as activators of caspases and inducers of apoptosis” (Cytovia, Inc., priority 1999, dated 2003).

The subject of one data set is KB cell line. The conditions noted are these: reported by Lin et al., Magn. Reson. Chem. 31:340-347 (1993); cited from earlier work.
The subject of data set [1] is human non-small cell lung cancer cell line A-549. The data set can be described thus: Inhibition of cell proliferation (GI50) and cell death (LC50), A-549. The conditions noted are these: A-549, 48 h; read-out: GI50 (dose for 50% inhibition of cell proliferation). It counts as cell-based. How it is done:
(§1) T47D, ZR-75-1, PC-3, human prostate cancer cell line DU-145, human non-small cell lung cancer cell line A-549, human small cell lung cancer cell line SHP-77, HL-60 and MRC-5 cells were grown and harvested as in Example 90. […] The samples were mixed by agitation and incubated at 37° C. for 2-4 h in a 5% CO2-95% humidity incubator. […] This determines the possible background absorbance of the test compounds. No absorbance for gambogic acid or its analogs or derivatives was found at 490 nm. After the 2-4 h incubation, the samples were read for absorbance as above (ATest).
(§2) Baseline for GI50 (dose for 50% inhibition of cell proliferation) and LC50 (dose for 50% cell death) of initial cell numbers was determined by adding an aliquot of 90 μl of cells or 90 μl of media, respectively, to wells of a 96-well microtiter plate containing 10 μl of a 10% DMSO in RPMI-1640 media solution. […] The samples were mixed by agitation and incubated at 37° C. for 2-4 h in a 5% CO2-95% humidity incubator. Absorbance was read as above, (AT=0) defining absorbance for initial cell number used as baseline in GI50 determinations and (Amin) defining absorbance for media alone used as baseline in LC50 determinations.
(§3) GI50 (dose for 50% inhibition of cell proliferation)
(§4) LC50 (dose for 50% cell death)
(§5) 50=100×[(ATest−Amin)/(AT=0−Amin)]

Data set [2] has as its system caspase activity, T47D cells and MRC-5 cells. The data set can be described thus: Dose response of caspase activation in T47D versus normal fibroblasts MRC-5. It counts as cell-based, human. The following applies: 2 h incubation, two-fold serial dilutions (FIG. 4). How it is done: T47D cells and MRC-5 cells were maintained and harvested as described in Example 90. An aliquot of 45 μl of cells was added to each well of a 96-well microtiter plate. To determine the dose response of gambogic acid for inducing caspase activity, 5 μl of 20 μM gambogic acid in RPMI media was added to wells in triplicates. Two-fold serial dilutions were made for the lower concentrations. After incubation for 2 h, the samples were removed from the 5% CO2-95% humidity incubator and caspase activity was determined by addition of a fluorogenic substrate as described in Example 90.

In the next data set the test system is Jurkat T leukemia cells. Description: Apoptotic morphology in Jurkat cells. It counts as cell-based. How it is done:
Jurkat T leukemia cells were grown in RPMI 1640 media (Life Technologies, Inc.)+10% FCS (Sigma Chemical Company) in a 5% CO2-95% humidity incubator at 37° C., and maintained at a cell density between 4 and 8×10^5 cells/ml. Cells were harvested at 200× g and resuspended at 1-2×10^6 cells/ml into RPMI 1640 media+10% FCS, and 3 ml of the cells was dispensed in each of three wells of a 6-well plate. One of the wells was treated with 10 μM caspase inhibitor cbz-Val-Asp-fink (Cytovia, Inc.; WO99/18781) and the plate was incubated at 37° C. in a 5% CO2-95% humidity incubator for 1 h prior to addition of gambogic acid. The wells with and without the caspase inhibitor were treated with 10 μM gambogic acid. The third well was treated with solvent (control cells). The plate was incubated at 37° C. in a 5% CO2-95% humidity incubator.
At 30 min. after addition of gambogic acid an aliquot of cells from each well was taken into the capillary slides and observed under a phase-contrast microscope.

For data set [3], the system named is poly(ADP)ribose polymerase (PARP) cleavage, PC3 cells. The data set can be described thus: PARP cleavage western blot, PC3 cells. It counts as cell-based, human. The following applies: 5 μM, 4 h (FIG. 5D). How it is done: Cleavage of the enzyme poly(ADP)ribose polymerase (PARP) by caspase-3 and related proteases is considered to be one of the molecular hallmarks of caspase-mediated apoptosis. Therefore, the ability of gambogic acid to induce PARP cleavage in four different human tumor cell lines (Jurkat cells, HL-60 cells, T47D cells and PC3 cells) was determined.
Cells were cultured in complete growth medium containing 10% FBS and treated with gambogic acid at concentrations of 2.5 μM or 5 μM for 2 to 4 h. Control cultures were treated with a drug vehicle (DMSO), or the well-characterized apoptosis inducer, staurosporine. At the end of the apoptosis induction period, the cells were harvested, washed once with PBS, quick-frozen on dry ice, and stored at −80° C. The cells were then lysed in a standard immunoblotting lysis buffer and samples of the lysates were electrophoresed on 4% to 20% gradient polyacrylamide gels. The proteins in the gels were then transferred to PVDF membranes and probed with a commercially-available rabbit polyclonal antibody to PARP.

For data set [4], the system named is caspase activity, A-549 cells. Description: Caspase induction and its inhibition by caspase inhibitor (Example 97), A-549. It counts as cell-based, human. Also on record: key to Inhibition of caspase activity by Inhibitor: The caspase activity detected was inhibited by the caspase inhibitor (+). How it is done: T47D, ZR-75, PC3, SHP-77 and A-549 cells were maintained and harvested as described in Example 90. Cells were added to 96-well plates as described in Example 90. The cells were treated with 10 μM gambogic acid, in the presence and in the absence of 10 μM caspase inhibitor cbz-Val-Asp-fmk (Cytovia, Inc.; WO99/18781). The plate was incubated up to 24 h at 37° C in a 5% CO2-95% humidity incubator. Caspase activity was determined by addition of a fluorogenic substrate as described in Example 90.
Gambogic acid induced caspase activity in a ratio of greater than 2.5 (+) above untreated cell levels in all the tested cancer cell lines (Table IV). The caspase activity detected was inhibited by the caspase inhibitor (+), confirming that the fluorescent signal was due to caspase activity.

Data set [5] concerns human small cell lung cancer cell line SHP-77. Description: Inhibition of cell proliferation (GI50) and cell death (LC50), SHP-77. It counts as cell-based. The conditions noted are these: SHP-77, 48 h. How it is done:
as §1, §2, §3, §4, §5

In another data set the test system is HL-60 cells. Description: Inhibition of cell proliferation (GI50) and cell death (LC50), HL-60. The conditions noted are these: HL-60, 48 h. It counts as cell-based. The protocol: as §1, §2, §3, §4, §5
The next data set deals with T47D breast cancer cells. The data set can be described thus: Nuclear fragmentation in T47D breast cancer cells (Syto16 stain). The following applies: 10 μM, 24 h (FIG. 2B). It counts as cell-based, human. How it is done: T47D cells were grown and plated as described in Example 90. The cells were treated with 10 μM of gambogic acid and the plate was incubated for up to 24 h at 37° C. in a 5% CO2-95% humidity incubator. At 24 h, the cells were incubated with a live cell nucleic acid stain, Syto16 (Molecular Probes) which stains DNA. After 2 washes with PBS, cells were examined under a fluorescence microscope. […] Nuclear fragmentation is a clear indicator of cellular apoptosis.

Setting [6] is: read-out: GI50 (dose for 50% inhibition of cell proliferation).
[7] abbreviates: read-out: LC50 (dose for 50% cell death).

In the case of `CC(C)=CCC[C@]1(C)C=Cc2c(O)c3c(c(CC=C(C)C)c2O1)O[C@]12C(=C[C@@H]4C[C@H]1C(C)(C)O[C@@]2(C/C=C(/C)C(=O)O)C4=O)C3=O` [Example 1, Gambogic Acid], the “Cytotoxicity against KB cell line” value in the data set with KB cell line is given as “cytotoxic”. Also, the figures for the GI50 (in data set [1]; in data set [5] (setting [6]); with HL-60 cells (setting [6])) were 800 nM, 500 nM and 500 nM, respectively. Besides, the “Sensitivity of T47D to induction of caspase activity relative to MRC-5 (dose response)” value in data set [2] was “more sensitive to induction of caspase activity than a normal fibroblast cell line MRC-5”. Besides, the “Cell morphology of Jurkat cells in presence of caspase inhibitor” value in the data set on Jurkat T leukemia cells (10 μM gambogic acid, 30 min, with 10 μM caspase inhibitor cbz-Val-Asp-fink (FIG. 3C)) is reported as “prevented the morphological changes”. For the same molecule, the “Cell morphology of Jurkat cells” value in the data set on Jurkat T leukemia cells (10 μM, 30 min (FIG. 3B)) was “blebbing and cellular fragmentation”. Moreover, the PARP cleavage result in data set [3] is on record as “a moderate amount of PARP cleavage product”. The “Inhibition of caspase activity by Inhibitor” value in data set [4] (A-549, 10 μM gambogic acid with 10 μM caspase inhibitor cbz-Val-Asp-fmk) is “+”. Moreover, in data set [4] (A-549, 10 μM gambogic acid, up to 24 h), the Caspase activity result is “+ (Gambogic acid induced caspase activity in a ratio of greater than 2.5 (+) above untreated cell levels)”. Further, the figures for the CC50 (in data set [5] (setting [7]); in the data set on HL-60 cells (setting [7])) were 500 nM and 700 nM, respectively. The “Nuclear fragmentation (Syto16 nuclear staining)” value in the data set with T47D breast cancer cells was “condensed and fragmented nuclei in a large population of the cells”.
